Converted amounts (≈) assume the structure as drawn. Like-named read-outs stand apart in the source and are kept apart here.
Assays:
[1] = Stability against mouse liver microsomes; assay type: in vitro ADME; settings: for Liver microsome stability remaining % after 60 min incubation with NADPH, mouse LM: 2 μM compound
Protocol: (§1) Determination of Stability Against Mouse and Human Mirosomes
(§2) Pooled human liver microsomes (Cat. 452161; Lot. 23418) were purchased from Corning and pooled male mouse liver microsomes (Cat. M1000; Lot. 1210302) were purchased from Xenotech. Microsomes were stored at −80° C. prior to use. 40 μL of ultra-pure H2O was used instead of NADPH solution in the negative control. The negative control was used to exclude the misleading factor that was resulted from instability of chemical itself. Samples with NADPH were prepared in duplicate. Negative controls were prepared in singlet.
(§3) The reaction was started with the addition of 4 μL of 200 μM compound solution to each master solution to get the final concentration of 2 μM. Verapamil was used as positive control in the assay. Aliquots of 50 μL were taken from the reaction solution at 0, 15, 30, 45 and 60 min. The reaction was stopped by addition of 4 volumes of cold acetonitrile with IS (200 nM imipramine, 200 nM labetalol and 2 μM ketoprofen). Samples were centrifuged at 3,220 g for 40 minutes. Aliquot of […] of the supernatant was mixed with 90 μL of ultra-pure H2O and then was used for LC-MS/MS analysis. Results are shown in Table 3 by indicating remaining % of the test compound after 60 minutes incubation with liver microsomes from human and mouse in the presence of NADPH.

[2] = Stability against human liver microsomes; assay type: in vitro ADME; settings: 2 μM compound
Protocol: as §1, §2, §3

A549 = assay: Anti-proliferative activity, CellTiterGlo assay, A549; assay type: cell-based; settings: Homo sapiens; A549, 96 hrs incubation; read-out: Antiproliferative activities IC50, A549
Protocol: (§4) The anti-proliferative activities of the compounds against 6 human cancer cell lines were determined by CellTiterGlo assay kit. All cells were obtained from ATCC and cultured as recommended by the vendor. Cells were assayed in exponential growth phase. Sample solution was prepared by 3-fold serial dilution from 30 mM stock for 10 doses in DMSO. Antiproliferative activities were measured by CellTiterGlo assay kit according to the protocol after cells were incubated for 96 hrs in a 37° C., 5% CO2 incubator.
(§5) On the 4th day of incubation, i) 15 μl reagent (CelltiterGlo assay kit) was added per well and plate was shaken (avoiding light) for 2 mins on a plate shaker, ii) the plate was kept (avoiding light) in room temperature for 30 min, and iii) the luminescence value was recorded by Multiplate reader.

BxPC-3 = assay: Anti-proliferative activity, CellTiterGlo assay, BxPC-3; assay type: cell-based; settings: Homo sapiens; BxPC-3, 96 hrs incubation; read-out: Antiproliferative activities IC50, BxPC-3
Protocol: as §4, §5

MDA-MB-231 = assay: Anti-proliferative activity, CellTiterGlo assay, MDA-MB-231; assay type: cell-based; settings: Homo sapiens; MDA-MB-231, 96 hrs incubation; read-out: Antiproliferative activities IC50, MDA-MB-231
Protocol: as §4, §5

HT29 = assay: Anti-proliferative activity, CellTiterGlo assay, HT29; assay type: cell-based; settings: Homo sapiens, HT-29; HT29, 96 hrs incubation; read-out: Antiproliferative activities IC50, HT29
Protocol: as §4, §5

U87-MG = assay: Anti-proliferative activity, CellTiterGlo assay, U87-MG; assay type: cell-based; settings: Homo sapiens, U-87 MG, 96 hrs incubation, read-out: Antiproliferative activities IC50, U87-MG
Protocol: as §4, §5

LNCaP = assay: Anti-proliferative activity, CellTiterGlo assay, LNCaP; assay type: cell-based; settings: Homo sapiens, 96 hrs incubation, read-out: Antiproliferative activities IC50, LNCaP
Protocol: as §4, §5

[3] = Solubility in pH4.0 and pH7.4 phosphate buffer solution; assay type: physicochemical; settings: phosphate buffer (PBS), aqueous buffer, kinetic from dmso stock, 2 hr incubation, 25° C.
Protocol: 1) Preparation of Stock Solutions
Diclofenac was used as positive control in the assay.
2) Procedures for Solubility Determination
This study was performed in duplicate. […] The filtered samples were diluted with methanol.
3) Samples Analyzed by LC-MS/MS

[4] = pH 4.0 phosphate buffer solution, read-out: Solubility, pH 4.0 PBS
[5] = pH 7.4 phosphate buffer solution, read-out: Solubility, pH 7.4 PBS

## CCOC(=O)CO/N=C1\CC[C@@H](C)[C@](C)(/C=C/C(C)=C/Cc2c(O)c(/C=N/OC)c(C)c(Cl)c2OC)[C@H]1C [Compound 18, ethyl 2-([[(1E,2R,3R,4R)-3-[(1E,3E)-5-[3-chloro-6-hydroxy-2-methoxy-5-[(1E)-(methoxyimino)methyl]-4-methylphenyl]-3-methylpenta-1,3-dien-1-yl]-2,3,4-trimethylcyclohexylidene]amino]oxy)acetate]
[1]
  Liver microsome stability remaining % after 60 min incubation with NADPH, mouse LM: 59%
[2]
  Liver microsome stability remaining % after 60 min incubation with NADPH, human LM: 86%

## CO/N=C/c1c(C)c(Cl)c(OC)c(C/C=C(C)/C=C/[C@@]2(C)[C@H](C)CC/C(=N\O)[C@@H]2C)c1O [Compound 10, 4-chloro-2-[(2E,4E)-5-[(1R,2R,3E,6R)-3-(hydroxyimino)-1,2,6-trimethylcyclohexyl]-3-methylpenta-2,4-dien-1-yl]-3-methoxy-6-[(1E)-(methoxyimino)methyl]-5-methylphenol]
[1]
  Liver microsome stability remaining % after 60 min incubation with NADPH, mouse LM: 63%
[2]
  Liver microsome stability remaining % after 60 min incubation with NADPH, human LM: 83%

## CO/N=C/c1c(C)c(Cl)c(OC)c(C/C=C(C)/C=C/[C@@]2(C)[C@H](C)CCC(C)(O)[C@@H]2C)c1O (stereo partly drawn) [Compound 14, (E)-3-chloro-6-hydroxy-5-((2E,4E)-5-((1R,2R,6R)-3-hydroxy-1,2,3,6-tetramethylcyclohexyl)-3-methylpenta-2,4-dien-1-yl)-4-methoxy-2-methylbenzaldehyde O-methyl oxime]
[1]
  Liver microsome stability remaining % after 60 min incubation with NADPH, mouse LM: 88%
[2]
  Liver microsome stability remaining % after 60 min incubation with NADPH, human LM: 99%

## CC(/C=C/[C@@]1(C)[C@H](C)CC/C(=N\OCCN2CCOCC2)[C@@H]1C)=C\Cc1c(O)c(C=O)c(C)c(Cl)c1OCF [Compound 12, 3-chloro-4-(fluoromethoxy)-6-hydroxy-2-methyl-5-[(2E,4E)-3-methyl-5-[(1R,2R,3E,6R)-1,2,6-trimethyl-3-[[2-(morpholin-4-yl)ethoxy]imino]cyclohexyl]penta-2,4-dien-1-yl]benzaldehyde]
A549
  IC50: 2900 nM
BxPC-3
  IC50: 2300 nM
MDA-MB-231
  IC50: 5800 nM
HT29
  IC50: 2800 nM
U87-MG
  IC50: 3600 nM
LNCaP
  IC50: 900 nM

## COc1c(Cl)c(C)c(/C=N/O)c(O)c1C/C=C(C)/C=C/[C@@]1(C)[C@H](C)CC/C(=N\O)[C@@H]1C [Compound 3, 4-chloro-2-[(2E,4E)-5-[(1R,2R,3E,6R)-3-(hydroxyimino)-1,2,6-trimethylcyclohexyl]-3-methylpenta-2,4-dien-1-yl]-6-[(1E)-(hydroxyimino)methyl]-3-methoxy-5-methylphenol]
[1]
  Liver microsome stability remaining % after 60 min incubation with NADPH, mouse LM: 58%
[2]
  Liver microsome stability remaining % after 60 min incubation with NADPH, human LM: 74%

## CC(/C=C/[C@@]1(C)[C@H](C)CC/C(=N\OCC(=O)O)[C@@H]1C)=C\Cc1c(O)c(/C=N/O)c(C)c(Cl)c1OCF [Compound 27, 2-([[(1E,2R,3R,4R)-3-[(1E,3E)-5-[3-chloro-2-(fluoromethoxy)-6-hydroxy-5-[(1E)-(hydroxyimino)methyl]-4-methylphenyl]-3-methylpenta-1,3-dien-1-yl]-2,3,4-trimethylcyclohexylidene]amino]oxy)acetic Acid]
[3]; [4]
  solubility at 2 h: 165 µM (≈ 86.6 µg/mL)
[3]; [5]
  solubility at 2 h: 315 µM (≈ 165 µg/mL)
[1]
  Liver microsome stability remaining % after 60 min incubation with NADPH, mouse LM: 97%
[2]
  Liver microsome stability remaining % after 60 min incubation with NADPH, human LM: 99%

## CO/N=C/c1c(C)c(Cl)c(OCF)c(C/C=C(C)/C=C/[C@@]2(C)[C@H](C)CC/C(=N\O)[C@@H]2C)c1O [Compound 11, 4-chloro-3-(fluoromethoxy)-2-[(2E,4E)-5-[(1R,2R,3E,6R)-3-(hydroxyimino)-1,2,6-trimethylcyclohexyl]-3-methylpenta-2,4-dien-1-yl]-6-[(1E)-(methoxyimino)methyl]-5-methylphenol]
[1]
  Liver microsome stability remaining % after 60 min incubation with NADPH, mouse LM: 56%
[2]
  Liver microsome stability remaining % after 60 min incubation with NADPH, human LM: 81%

## CO/N=C/c1c(C)c(Cl)c(OC)c(C/C=C(C)/C=C/[C@@]2(C)[C@H](C)CCC(NC3COC3)[C@@H]2C)c1O (stereo partly drawn) [Compound 25, 4-chloro-3-methoxy-6-[(1E)-(methoxyimino)methyl]-5-methyl-2-[(2E,4E)-3-methyl-5-[(1R,2R,6R)-1,2,6-trimethyl-3-[(oxetan-3-yl)amino]cyclohexyl]penta-2,4-dien-1-yl]phenol]
[1]
  Liver microsome stability remaining % after 60 min incubation with NADPH, mouse LM: 39%
[2]
  Liver microsome stability remaining % after 60 min incubation with NADPH, human LM: 66%

## CC(/C=C/[C@@]1(C)[C@H](C)CC/C(=N\OCC(=O)O)[C@@H]1C)=C\Cc1c(O)c(C=O)c(C)c(Cl)c1OCF [Compound 26, 2-([[(1E,2R,3R,4R)-3-[(1E,3E)-5-[3-chloro-2-(fluoromethoxy)-5-formyl-6-hydroxy-4-methylphenyl]-3-methylpenta-1,3-dien-1-yl]-2,3,4-trimethylcyclohexylidene]amino]oxy)acetic Acid]
[3]; [4]
  solubility at 2 h: 192 µM (≈ 97.9 µg/mL)
[3]; [5]
  solubility at 2 h: 12.3 µM (≈ 6.27 µg/mL)

## CO/N=C/c1c(C)c(Cl)c(OCF)c(C/C=C(C)/C=C/[C@@]2(C)[C@H](C)CC/C(=N\OC)[C@@H]2C)c1O [Compound 9, 4-chloro-3-(fluoromethoxy)-2-[(2E,4E)-5-[(1R,2R,3E,6R)-3-(methoxyimino)-1,2,6-trimethylcyclohexyl]-3-methylpenta-2,4-dien-1-yl]-6-[(1E)-(methoxyimino)methyl]-5-methylphenol]
[1]
  Liver microsome stability remaining % after 60 min incubation with NADPH, mouse LM: 83%
[2]
  Liver microsome stability remaining % after 60 min incubation with NADPH, human LM: 100%

## COc1c(Cl)c(C)c(C=O)c(O)c1C/C=C(C)/C=C/[C@@]1(C)[C@H](C)CCC(=O)[C@@H]1C [MAC, 3-chloro-6-hydroxy-4-methoxy-2-methyl-5-[(2E,4E)-3-methyl-5-[(1R,2R,6R)-1,2,6-trimethyl-3-oxocyclohexyl]penta-2,4-dien-1-yl]benzaldehyde, reference compound]
[3]; [4]
  solubility at 2 h: < 0.08 µM
[3]; [5]
  solubility at 2 h: 0.07 µM (≈ 0.0293 µg/mL)
[1]; liver microsomes of human and mouse in the presence of NADPH, 1 hr
  metabolic stability: % remained after 1 hr incubation: 6%
[1]
  Liver microsome stability remaining % after 60 min incubation with NADPH, mouse LM: 6%
[2]
  Liver microsome stability remaining % after 60 min incubation with NADPH, human LM: 2%

## CO/N=C/c1c(C)c(Cl)c(OC)c(C/C=C(C)/C=C/[C@@]2(C)[C@H](C)CCC(NC3CC3)[C@@H]2C)c1O (stereo partly drawn) [Compound 23, 4-chloro-2-[(2E,4E)-5-[(1R,2R,6R)-3-(cyclopropylamino)-1,2,6-trimethylcyclohexyl]-3-methylpenta-2,4-dien-1-yl]-3-methoxy-6-[(1E)-(methoxyimino)methyl]-5-methylphenol]
[1]
  Liver microsome stability remaining % after 60 min incubation with NADPH, mouse LM: 98%
[2]
  Liver microsome stability remaining % after 60 min incubation with NADPH, human LM: 74%

## CO/N=C/c1c(C)c(Cl)c(OC)c(C/C=C(C)/C=C/[C@@]2(C)[C@H](C)CC/C(=N\OCCN3CCOCC3)[C@@H]2C)c1O [Compound 16, 4-chloro-3-methoxy-6-[(1E)-(methoxyimino)methyl]-5-methyl-2-[(2E,4E)-3-methyl-5-[(1R,2R,3E,6R)-1,2,6-trimethyl-3-[[2-(morpholin-4-yl)ethoxy]imino]cyclohexyl]penta-2,4-dien-1-yl]phenol]
[1]
  Liver microsome stability remaining % after 60 min incubation with NADPH, mouse LM: 76%
[2]
  Liver microsome stability remaining % after 60 min incubation with NADPH, human LM: 56%

## CO/N=C/c1c(C)c(Cl)c(OC)c(C/C=C(C)/C=C/[C@@]2(C)[C@H](C)CC/C(=N\OC)[C@@H]2C)c1O [Compound 8, 4-chloro-3-methoxy-2-[(2E,4E)-5-[(1R,2R,3E,6R)-3-(methoxyimino)-1,2,6-trimethylcyclohexyl]-3-methylpenta-2,4-dien-1-yl]-6-[(1E)-(methoxyimino)methyl]-5-methylphenol]
[1]
  Liver microsome stability remaining % after 60 min incubation with NADPH, mouse LM: 89%
[2]
  Liver microsome stability remaining % after 60 min incubation with NADPH, human LM: 100%

From US10968186B2, “Ascochlorin derivative and use thereof as AMPK activator” (priority 2016, dated 2021)
